Molecules are shown by their SMILES.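 Following 48 hours of exposure in 96-well plates, responses at five concentrations were used to interpolate endpoints linearly. TGI: total growth inhibition.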

The first test relates to NCI-H226 lung. Description: NCI anticancer screen, dose series, 48 h.
With `Brc1ccc(N=c2nc3ccccn3n3nc(-c4ccccc4)cc23)cc1`, the TGI is greater than 100 µM.

For the next test, the system named is NCI-H23 lung. Description: NCI anticancer screen, dose series, 48 h.
As for `CC1(c2ccc(F)cc2)C(C#N)C(=O)NC(=O)C1C#N` (stereo not drawn), the TGI was greater than 100 µM.
`C[n+]1c2ccccc2c(/C=N\NS(=O)(=O)c2ccc(O)c(C(=O)O)c2)c2ccccc21` showed a TGI greater than 100 µM.
Still for that read-out and setting: as for `CCOC(=O)CN1C(=O)c2cccc3cc([N+](=O)[O-])cc(c23)C1=O`, the figure is 4.52 µM; as for `Brc1ccc(N=c2nc3ccccn3n3nc(-c4ccccc4)cc23)cc1`, greater than 100 µM.

The next test concerns NCI-H460 lung. Description: NCI anticancer screen, dose series, 48 h.
Turning to `CC1(c2ccc(F)cc2)C(C#N)C(=O)NC(=O)C1C#N` (stereo not drawn), the TGI is greater than 100 µM.
Same read-out and setting: as for `C[n+]1c2ccccc2c(/C=N\NS(=O)(=O)c2ccc(O)c(C(=O)O)c2)c2ccccc21`, the figure is greater than 100 µM; as for `CCOC(=O)CN1C(=O)c2cccc3cc([N+](=O)[O-])cc(c23)C1=O`, 17.3 µM.
The same measure, in the same setting: next, `Brc1ccc(N=c2nc3ccccn3n3nc(-c4ccccc4)cc23)cc1`: greater than 100 µM.

The next test concerns NCI-H522 lung. Briefly: NCI anticancer screen, dose series, 48 h.
As for `CC1(c2ccc(F)cc2)C(C#N)C(=O)NC(=O)C1C#N` (stereo not drawn), the TGI was greater than 100 µM.
On the same count and under the same terms, as for `C[n+]1c2ccccc2c(/C=N\NS(=O)(=O)c2ccc(O)c(C(=O)O)c2)c2ccccc21`, the figure is greater than 100 µM.
Still for that read-out and setting: as for `Brc1ccc(N=c2nc3ccccn3n3nc(-c4ccccc4)cc23)cc1`, the figure is 88.2 µM.

For another test, the system named is OVCAR-3 ovarian. Description: NCI anticancer screen, dose series, 48 h.
In turn, `CC1(c2ccc(F)cc2)C(C#N)C(=O)NC(=O)C1C#N` (stereo not drawn) registered a TGI greater than 100 µM.
On the same count and under the same terms, next, `C[n+]1c2ccccc2c(/C=N\NS(=O)(=O)c2ccc(O)c(C(=O)O)c2)c2ccccc21`: greater than 100 µM; `CCOC(=O)CN1C(=O)c2cccc3cc([N+](=O)[O-])cc(c23)C1=O`: 14.9 µM; `Brc1ccc(N=c2nc3ccccn3n3nc(-c4ccccc4)cc23)cc1`: 72.1 µM.

In the next test the test system is OVCAR-4 ovarian. Description: NCI anticancer screen, dose series, 48 h.
`CC1(c2ccc(F)cc2)C(C#N)C(=O)NC(=O)C1C#N` (stereo not drawn) gave a TGI greater than 100 µM.
On the same count and under the same terms, as for `C[n+]1c2ccccc2c(/C=N\NS(=O)(=O)c2ccc(O)c(C(=O)O)c2)c2ccccc21`, the figure is greater than 100 µM.
Same read-out and setting: as for `CCOC(=O)CN1C(=O)c2cccc3cc([N+](=O)[O-])cc(c23)C1=O`, the figure is 3.27 µM; as for `Brc1ccc(N=c2nc3ccccn3n3nc(-c4ccccc4)cc23)cc1`, 20.7 µM.

The next test relates to OVCAR-5 ovarian. Briefly: NCI anticancer screen, dose series, 48 h.
Take `CC1(c2ccc(F)cc2)C(C#N)C(=O)NC(=O)C1C#N` (stereo not drawn): the TGI was greater than 100 µM.
Still for that read-out and setting: as for `C[n+]1c2ccccc2c(/C=N\NS(=O)(=O)c2ccc(O)c(C(=O)O)c2)c2ccccc21`, the figure is greater than 100 µM; as for `CCOC(=O)CN1C(=O)c2cccc3cc([N+](=O)[O-])cc(c23)C1=O`, 28.9 µM.

The subject of the next test is OVCAR-8 ovarian. Briefly: NCI anticancer screen, dose series, 48 h.
In turn, `CC1(c2ccc(F)cc2)C(C#N)C(=O)NC(=O)C1C#N` (stereo not drawn) gave a TGI greater than 100 µM.
In turn, `C[n+]1c2ccccc2c(/C=N\NS(=O)(=O)c2ccc(O)c(C(=O)O)c2)c2ccccc21` displayed a TGI greater than 100 µM.
Turning to `CCOC(=O)CN1C(=O)c2cccc3cc([N+](=O)[O-])cc(c23)C1=O`, the TGI is 3.43 µM.
Still for that read-out and setting: as for `Brc1ccc(N=c2nc3ccccn3n3nc(-c4ccccc4)cc23)cc1`, the figure is greater than 100 µM.

For a further test, the system named is RPMI-8226 leukemia. Briefly: NCI anticancer screen, dose series, 48 h.
In turn, `CC1(c2ccc(F)cc2)C(C#N)C(=O)NC(=O)C1C#N` (stereo not drawn) had a TGI greater than 100 µM.
In turn, `C[n+]1c2ccccc2c(/C=N\NS(=O)(=O)c2ccc(O)c(C(=O)O)c2)c2ccccc21` gave a TGI greater than 100 µM.
Still for that read-out and setting: next, `Brc1ccc(N=c2nc3ccccn3n3nc(-c4ccccc4)cc23)cc1`: greater than 100 µM.

Another test deals with RXF 393 renal. Briefly: NCI anticancer screen, dose series, 48 h.
On to `CC1(c2ccc(F)cc2)C(C#N)C(=O)NC(=O)C1C#N` (stereo not drawn), for which the TGI is greater than 100 µM.
Still for that read-out and setting: next, `C[n+]1c2ccccc2c(/C=N\NS(=O)(=O)c2ccc(O)c(C(=O)O)c2)c2ccccc21`: greater than 100 µM; `CCOC(=O)CN1C(=O)c2cccc3cc([N+](=O)[O-])cc(c23)C1=O`: 3.89 µM; `Brc1ccc(N=c2nc3ccccn3n3nc(-c4ccccc4)cc23)cc1`: 51.1 µM.

The next test concerns RXF-631 renal. Briefly: NCI anticancer screen, dose series, 48 h.
The compound `CC1(c2ccc(F)cc2)C(C#N)C(=O)NC(=O)C1C#N` (stereo not drawn) gave a TGI greater than 100 µM.
The compound `C[n+]1c2ccccc2c(/C=N\NS(=O)(=O)c2ccc(O)c(C(=O)O)c2)c2ccccc21` registered a TGI greater than 100 µM.
The compound `Brc1ccc(N=c2nc3ccccn3n3nc(-c4ccccc4)cc23)cc1` displayed a TGI greater than 100 µM.

For the next test, the system named is SF-268 CNS. Briefly: NCI anticancer screen, dose series, 48 h.
`CC1(c2ccc(F)cc2)C(C#N)C(=O)NC(=O)C1C#N` (stereo not drawn) came in with a TGI greater than 100 µM.
Compound `C[n+]1c2ccccc2c(/C=N\NS(=O)(=O)c2ccc(O)c(C(=O)O)c2)c2ccccc21` had a TGI greater than 100 µM.
The same measure, in the same setting: next, `CCOC(=O)CN1C(=O)c2cccc3cc([N+](=O)[O-])cc(c23)C1=O`: 11.1 µM; `Brc1ccc(N=c2nc3ccccn3n3nc(-c4ccccc4)cc23)cc1`: greater than 100 µM.

In another test the test system is SF-295 CNS. Briefly: NCI anticancer screen, dose series, 48 h.
Compound `CC1(c2ccc(F)cc2)C(C#N)C(=O)NC(=O)C1C#N` (stereo not drawn) displayed a TGI greater than 100 µM.
The same measure, in the same setting: as for `C[n+]1c2ccccc2c(/C=N\NS(=O)(=O)c2ccc(O)c(C(=O)O)c2)c2ccccc21`, the figure is greater than 100 µM.
As to `Brc1ccc(N=c2nc3ccccn3n3nc(-c4ccccc4)cc23)cc1`, the TGI was greater than 100 µM.

Another test deals with SF-539 CNS. Briefly: NCI anticancer screen, dose series, 48 h.
Consider `CC1(c2ccc(F)cc2)C(C#N)C(=O)NC(=O)C1C#N` (stereo not drawn), for which the TGI is greater than 100 µM.
The same measure, in the same setting: next, `C[n+]1c2ccccc2c(/C=N\NS(=O)(=O)c2ccc(O)c(C(=O)O)c2)c2ccccc21`: greater than 100 µM.
The compound `CCOC(=O)CN1C(=O)c2cccc3cc([N+](=O)[O-])cc(c23)C1=O` displayed a TGI of 16 µM.
In the case of `Brc1ccc(N=c2nc3ccccn3n3nc(-c4ccccc4)cc23)cc1`, the TGI is greater than 100 µM.

For another test, the system named is SK-MEL-2 melanoma. Briefly: NCI anticancer screen, dose series, 48 h.
On to `CC1(c2ccc(F)cc2)C(C#N)C(=O)NC(=O)C1C#N` (stereo not drawn), for which the TGI was greater than 100 µM.
Consider `C[n+]1c2ccccc2c(/C=N\NS(=O)(=O)c2ccc(O)c(C(=O)O)c2)c2ccccc21`, for which the TGI is greater than 100 µM.
In turn, `CCOC(=O)CN1C(=O)c2cccc3cc([N+](=O)[O-])cc(c23)C1=O` showed a TGI of 2.87 µM.
As to `Brc1ccc(N=c2nc3ccccn3n3nc(-c4ccccc4)cc23)cc1`, the TGI was greater than 100 µM.

In a further test the test system is SK-MEL-28 melanoma. Briefly: NCI anticancer screen, dose series, 48 h.
`CC1(c2ccc(F)cc2)C(C#N)C(=O)NC(=O)C1C#N` (stereo not drawn) returned a TGI greater than 100 µM.

The values above are taken from PubChem BioAssay (NCI).
